Measured values from patent US11357759B2, “Composition including ADAM9 inhibitor and the use thereof” (China Medical University, priority 2017, dated 2022).

What was measured:
[1] = system: lung cancer cells in suspension culture; assay: Cytotoxicity of lung cancer cells in suspension culture; assay type: cell-based
Source text: The representative derivatives can reduce CDCP1 expression.

[2] = target: T1, recombinant human ADAM9 (Homo sapiens, UniProt Q13443); assay: ADAM9 enzymatic activity, ELISA system with fluorogenic peptide substrate; assay type: biochemical
T1 construct: purchased R&D system
T1 sequence (Q13443 29-819): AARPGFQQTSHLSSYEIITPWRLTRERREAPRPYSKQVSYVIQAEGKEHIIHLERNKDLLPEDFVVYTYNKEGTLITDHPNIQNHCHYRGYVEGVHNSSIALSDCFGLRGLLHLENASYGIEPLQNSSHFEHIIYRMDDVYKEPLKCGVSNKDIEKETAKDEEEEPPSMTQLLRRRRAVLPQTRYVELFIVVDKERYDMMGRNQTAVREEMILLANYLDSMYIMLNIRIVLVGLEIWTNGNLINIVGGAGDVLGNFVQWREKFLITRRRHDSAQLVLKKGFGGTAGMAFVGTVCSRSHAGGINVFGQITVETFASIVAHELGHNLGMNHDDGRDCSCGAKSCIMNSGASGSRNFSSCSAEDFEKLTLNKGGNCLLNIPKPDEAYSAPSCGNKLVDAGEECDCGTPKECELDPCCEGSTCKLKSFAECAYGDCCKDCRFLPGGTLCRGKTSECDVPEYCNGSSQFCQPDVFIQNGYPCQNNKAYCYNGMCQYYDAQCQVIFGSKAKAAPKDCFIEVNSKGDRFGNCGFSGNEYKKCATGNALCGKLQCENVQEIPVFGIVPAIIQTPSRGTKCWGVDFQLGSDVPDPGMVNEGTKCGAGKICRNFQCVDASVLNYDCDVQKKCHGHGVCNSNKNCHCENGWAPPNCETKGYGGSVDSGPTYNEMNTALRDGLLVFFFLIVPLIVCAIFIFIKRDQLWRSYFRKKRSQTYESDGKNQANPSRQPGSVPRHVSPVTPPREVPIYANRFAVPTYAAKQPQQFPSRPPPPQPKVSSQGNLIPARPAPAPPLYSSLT
Protocol: To measure the efficacy of ADAM9 inhibitors in suppression of ADAM9 enzymatic activity, we established an ELISA system using recombinant human ADAM9 and a fluorogenic peptide substrate (R&D system). Broad-spectrum metalloprotease inhibitor BB-94 was included as a positive control. […] To evaluate the specificity of ADAM9 inhibitors, we performed a migration inhibition assay in control (shGFP) and ADAM9 knockdown (shADAM9) lung cancer cells in the presence of 25 μM of each compound. […] To ensure the generality of the compounds in blocking anoikis-resistance of cancer cells, we determined the IC50 of representative compounds for anoikis (anchorage-free induced apoptosis) in cancer cell lines and leukocytes in anchorage-free culture conditions. […] Plating efficiency of Bm7 treated with 20 μM ADAM9 inhibitor and TC1 cells treated with 10 μM ADAM9 inhibitor was shown. Control and ADAM9 knockout (KO) TC1 cells were treated with ADAM9 inhibitor for 24 hours and then stained with annexin V and PI. The apoptotic cells (Annexin V positive cells) are indicated as the percentage of gated cells from three independent experiments with mean±SD.

[3] = target: ADAM17 (Homo sapiens, UniProt P78536); assay: ADAM17 inhibition; assay type: biochemical
Sequence of ADAM17 (P78536 215-824, species assumed): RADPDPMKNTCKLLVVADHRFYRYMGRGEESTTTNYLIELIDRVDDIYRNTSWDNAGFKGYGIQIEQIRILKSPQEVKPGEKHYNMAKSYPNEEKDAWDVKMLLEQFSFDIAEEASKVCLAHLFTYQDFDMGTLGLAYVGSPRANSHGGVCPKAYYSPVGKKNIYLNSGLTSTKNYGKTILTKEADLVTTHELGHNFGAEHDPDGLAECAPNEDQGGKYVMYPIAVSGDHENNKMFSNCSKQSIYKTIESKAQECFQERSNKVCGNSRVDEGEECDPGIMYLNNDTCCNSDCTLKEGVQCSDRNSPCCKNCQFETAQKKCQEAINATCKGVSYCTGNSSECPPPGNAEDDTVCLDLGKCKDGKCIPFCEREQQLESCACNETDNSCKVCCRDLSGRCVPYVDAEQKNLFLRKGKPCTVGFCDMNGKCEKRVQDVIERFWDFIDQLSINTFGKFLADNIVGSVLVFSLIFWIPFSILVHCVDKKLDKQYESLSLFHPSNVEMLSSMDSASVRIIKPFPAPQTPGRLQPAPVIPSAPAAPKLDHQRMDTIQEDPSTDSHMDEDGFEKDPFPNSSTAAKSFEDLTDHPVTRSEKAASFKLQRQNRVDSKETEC

[4] = system: 4T1-luc cells; assay: 4T1-luc breast tumor model, adjuvant therapy after surgery; assay type: in vivo; details: for mice with no relapse: adjuvant after surgery, 12W0271 10 mg/kg s.c. (over 333 days), doxorubicin 1 mg/kg i.p., 12 times
Protocol: To compare the therapeutic effect of the inhibitors to chemotherapy agent doxorubicin in breast cancer treatment, we treated mice with 12W0271 or doxorubicin as adjuvant therapy after surgery of primary breast tumors. Balb/c mice received mammary fat pad injection of 5×10^4 4T1-luc cells. ADAM9 inhibitor was subcutaneously injected at 10 mg/kg once a day, 5 times per week for total 12 times. Doxorubicin was intraperitoneally injected at 1 mg/kg, once a day, 5 times per week for total 12 times. […] This breast tumor animal model is a clinically relevant triple negative breast cancer with poor outcome. In doxorubicin treatment, only one mouse (12.5%) had complete response with no relapse. Body weight of survived mice in doxorubicin and 12W0271 groups was determined on day 140. Dash line indicates average body weight in normal mice.

[5] = system: TC1 lung cancer cells; assay: Metastatic lung tumor model (intravenous TC1), combination with cisplatin; assay type: in vivo, mice; details: ADAM9 inhibitor 4 mg/kg i.v., cisplatin 1.5 mg/kg i.p., twice a week for 4 weeks
Protocol: To investigate the synergistic effect of chemotherapy drugs and ADAM9 inhibitors, we measured the cytotoxicity of individual and combination of cisplatin and 12W0271 for 3 days in TC1 cells by MTT. […] ADAM9 inhibitor (4 mg/kg) was intravenous injected twice a week for 4 weeks and cisplatin (1.5 mg/kg) was intraperitoneal injected twice a week for 4 weeks.

SMILES | IC50 for the cytotoxicity of lung cancer cells, compared to compound 310 [1] | ADAM9 activity [2] | inhibitory effects in ADAM17 [3] | mice with no relapse [4] | condition and body size of survived mice ([4]; long term, 10 mg/kg s.c.) | survival time [5]
O=C1c2ccccc2C(=O)N1CCc1csc(Nc2nc(CCN3C(=O)c4ccccc4C3=O)cs2)n1 [12W-0271] | strongly reduced the IC50 | decreased ADAM9 activity to a similar extent in a dose-dependent manner | no inhibitory effects | 37.5% | healthy condition with bigger body size than the survival one in doxorubicin group | 
N.N.[Cl][Pt][Cl] [cisplatin] |  |  |  |  |  | significantly prolonged survival time
COc1cccc2c1C(=O)c1c(O)c3c(c(O)c1C2=O)C[C@@](O)(C(=O)CO)C[C@@H]3O[C@H]1C[C@H](N)[C@H](O)[C@H](C)O1 [doxorubicin, reference compound] |  |  |  | 12.5% |  | 
O=C(Nc1nc(CCN2C(=O)c3ccccc3C2=O)cs1)c1cc2ccccc2s1 [6X-0214] | strongly reduced the IC50 | decreased ADAM9 activity to a similar extent in a dose-dependent manner | no inhibitory effects |  |  | 
